Active and inactive are the calls of the source. No cut-off for these calls is given here.
What was measured:
TE-1 = assay: Antiproliferative activity against human TE-1 cells assessed as inhibition of cell growth measured after 72 hrs by SRB assay; assay type: functional, cell-based; conditions: TE-1, 72 h
SW1990 = assay: Antiproliferative activity against human SW1990 cells assessed as inhibition of cell growth measured after 72 hrs by SRB assay; assay type: functional, cell-based; conditions: SW1990, 72 h
HGC-27 [1] = assay: Antiproliferative activity against human HGC-27 cells assessed as inhibition of cell growth measured after 72 hrs by SRB assay; assay type: functional, cell-based; conditions: HGC-27, 72 h
PC-3 = assay: Antiproliferative activity against human PC-3 cells assessed as inhibition of cell growth measured after 72 hrs by SRB assay; assay type: functional, cell-based; conditions: PC-3, 72 h
MGC-803 = assay: Antiproliferative activity against human MGC-803 cells assessed as inhibition of cell growth measured after 72 hrs by SRB assay; assay type: functional, cell-based; conditions: MGC-803, 72 h
[2] = Drug uptake in human HGC-27 cells assessed as increase in fluorescence intensity of green signal at 8 uM measured after 1 hr by fluorescence microscopic analysis; assay type: ADME, cell-based; conditions: hgc-27, 1 h
HGC-27 [3] = assay: Induction of apoptosis in human HGC-27 cells assessed as nuclear rupture at 0.5 to 2 uM by Hoechst 33342 staining based fluorescence assay; assay type: functional, cell-based; conditions: dose 0.5-2 µM
[4] = Drug localization in mitochondria of human HGC-27 cells at 2 uM incubated for 1 hr by Mitotracker red dye based confocal laser microscopy analysis; assay type: ADME; conditions: hgc-27, 1 h
HGC-27 [5] = assay: Induction of apoptosis in human HGC-27 cells assessed as increase in cleaved caspase-3 expression upto 2 uM measured after 24 hrs by Western blot analysis; assay type: functional, cell-based; conditions: dose microM <=2, time 24.0 hrs
HGC-27 [6] = assay: Induction of apoptosis in human HGC-27 cells assessed as increase in cleaved caspase-9 expression upto 2 uM measured after 24 hrs by Western blot analysis; assay type: functional, cell-based; conditions: dose microM <=2, time 24.0 hrs
HGC-27 [7] = assay: Induction of apoptosis in human HGC-27 cells assessed as enhance brightness of fluorescence at 0.5 to 2 uM by Hoechst 33342 staining based fluorescence assay; assay type: functional, cell-based; conditions: dose 0.5-2 µM
[8] = Drug uptake in human HGC-27 cells assessed as increase in fluorescence intensity by fluorescence microscopic analysis; assay type: ADME, cell-based; conditions: dose 2-8 µM, time <=60 min
HGC-27 [9] = assay: Inhibition of colony formation in human HGC-27 cells measured for 24 hrs by crystal violet staining based assay; assay type: functional, cell-based; conditions: dose microM <=2, time 24.0 hrs
HGC-27 [10] = assay: Induction of apoptosis in human HGC-27 cells assessed as increase in total apoptotic cells by Hoechst 33342 staining based fluorescence assay; assay type: functional, cell-based; conditions: dose 0.5-2 µM
HGC-27 [11] = assay: Induction of mitochondrial membrane potential loss in human HGC-27 cells assessed as decrease in red fluorescence intensity upto 2 uM incubated for 24 hrs by TMRM dye based flow cytometric analysis; assay type: functional, cell-based; conditions: dose microM <=2, time 24.0 hrs
[12] = Drug localization in nucleus of human HGC-27 cells at 2 uM incubated for 1 hr by DAPI staining based confocal laser microscopic analysis; assay type: ADME, cell-based; conditions: hgc-27, 1 h
HGC-27 [13] = assay: Induction of apoptosis in human HGC-27 cells assessed as nuclear cohesion at 0.5 to 2 uM by Hoechst 33342 staining based fluorescence assay; assay type: functional, cell-based; conditions: dose 0.5-2 µM
HGC-27 [14] = assay: Induction of apoptosis in human HGC-27 cells assessed as increase in cytochrome-c expression upto 2 uM measured after 24 hrs by Western blot analysis; assay type: functional, cell-based; conditions: dose microM <=2, time 24.0 hrs
HGC-27 [15] = assay: Induction of apoptosis in human HGC-27 cells assessed as increase in Bax expression upto 2 uM measured after 24 hrs by Western blot analysis; assay type: functional, cell-based; conditions: dose microM <=2, time 24.0 hrs
HGC-27 [16] = assay: Antimigratory activity against human HGC-27 cells assessed as inhibition of cell migration measured after 24 hrs by cell scratch assay; assay type: functional, cell-based; conditions: dose microM <=2, time 24.0 hrs
[17] = Cytotoxicity against human GES1 cells assessed as inhibition of cell growth measured after 72 hrs by SRB assay; assay type: toxicity, cell-based
HGC-27 [18] = assay: Induction of apoptosis in human HGC-27 cells assessed as decrease in Bcl-2 expression upto 2 uM measured after 24 hrs by Western blot analysis; assay type: functional, cell-based; conditions: dose microM <=2, time 24.0 hrs

For `C=C1C(=O)[C@]23[C@H](O)[C@H]1C[C@H](O)[C@H]2[C@]12CCCC(C)(C)[C@H]1C[C@H]3O[C@H]2O`, the IC50 (TE-1) was 8.82 µM, the IC50 (SW1990) was 7.36 µM and the IC50 (HGC-27 [1]) was 4.98 µM. For the same compound, the IC50 (PC-3) was 8.43 µM, the IC50 (MGC-803) was 7.19 µM and the Drug uptake [2] was “Not Active”.

For `O=C1c2cccc3c(N4CCCCC4)ccc(c23)C(=O)N1CCOCCOCCOCCn1cc(CCCO)nn1`, the IC50 (TE-1) was greater than 32 µM, the IC50 (SW1990) was greater than 32 µM and the IC50 (HGC-27 [1]) was greater than 32 µM. For the same compound, the IC50 (PC-3) was greater than 32 µM, the IC50 (MGC-803) was greater than 32 µM and the Drug uptake [2] was “Not Active”.

For `C=C1C(=O)[C@]23[C@H](O)[C@H]1C[C@H](O)[C@H]2[C@]12CCCC(C)(C)[C@H]1C[C@H]3O[C@H]2OCCCCCc1cn(CCOCCOCCOCCN2C(=O)c3cccc4c(N5CCCCC5)ccc(c34)C2=O)nn1`, the Activity (HGC-27 [3]) was “Active”, the Drug uptake [4] was “Active” and the IC50 (TE-1) was 0.73 µM. The IC50 (SW1990) was 0.86 µM, the IC50 (HGC-27 [1]) was 0.39 µM and the Activity (HGC-27 [5]) was “Active”. For the same compound, the Activity (HGC-27 [6]) was “Active”, the Activity (HGC-27 [7]) was “Active” and the Drug uptake [8] was “Dose-Dependent Effect and Tde”. For the same compound, the Activity (HGC-27 [9]) was “Dose-Dependent Effect”, the IC50 (PC-3) was 0.68 µM and the Activity (HGC-27 [10]) was “Active”. For the same compound, the Activity (HGC-27 [11]) was “Active”, the Drug uptake [12] was “Not Active” and the IC50 (MGC-803) was 0.64 µM. The Activity (HGC-27 [13]) was “Active”, the Activity (HGC-27 [14]) was “Active” and the Activity (HGC-27 [15]) was “Active”. For the same compound, the Activity (HGC-27 [16]) was “Dose-Dependent Effect”, the IC50 at 72 h [17] was 18.1 µM and the Activity (HGC-27 [18]) was “Active”. For the same compound, the Drug uptake [2] was “Active”.

For `C=C1C(=O)[C@]23[C@H](O)[C@H]1C[C@H](O)[C@H]2[C@]12CCCC(C)(C)[C@H]1C[C@H]3O[C@H]2OCCc1cn(CCOCCN2C(=O)c3cccc4c(N5CCCCC5)ccc(c34)C2=O)nn1`, the IC50 (TE-1) was 1.31 µM, the IC50 (SW1990) was 1.18 µM and the IC50 (HGC-27 [1]) was 4.14 µM. For the same compound, the IC50 (PC-3) was 0.99 µM and the IC50 (MGC-803) was 2.13 µM.

From ChEMBL document CHEMBL5046249, “Synthesis, biological evaluation and cellular localization study of fluorescent derivatives of Jiyuan Oridonin A” (Eur J Med Chem, 2022)
